Assay results taken from US20080305520A9, “Mechanosensitive ion channels and methods of use” (priority 2004, published 2008).
“Also recorded” adds a separate entry of the source.

Experiments:
[1] = system: [Ca^2+]i fluctuations in migrating PC3 cells; assay: Fura-2 Ca2+ imaging of [Ca2+]i fluctuations in migrating PC3 cells; assay type: cell-based, human; details: for sustained and transient [Ca^2+]i oscillations: same concentrations that blocked/reduced MscCa activity and PC3 cell migration, 9 cells, 3 experiments
Protocol: Two distinct types of [Ca^2+]i fluctuations were observed; a sustained Ca^2+)1 that increased from the front of the cell to the rear and was maintained for the duration of the locomotion cycle (up to 3 hours) measured from tether formation to tether release; and a fast transient [Ca2+i wave that spread rapidly through out the cell and lasted <1 minute (the time interval between frames) with an average frequency of 6 waves in 30 minutes. Both sustained and transients [Ca2+]i fluctuations were associated with moving cells. All three anti-MscCa agents described above, abolished both forms of [Ca^2+]i oscillations at the same concentrations that blocked/reduced MscCa activity and PC3 cell migration (9 cells, 3 experiments). Again, whereas with Gd and GsmTx4 the block was reversible, there was no recovery after the anti-TRPCI Ab washout.
(§1) Time-lapse videomicroscopy and Ca 2-imaging were conducted as follows. Cell migration was monitored by time-lapse videomicroscopy using Nomarski optics with an Epifluorescent microscope (TE 200). The time-lapse images were acquired and saved at 5 minute intervals using Metafluor software. Calcium imaging assays were carried out on cells previously loaded with Fura-2 AM (5 tm for 30 minutes). Time-lapse fluorescence images were consecutively acquired at 340 and 380 wavelengths and transmission (DIC) at intervals of I minute using Metafluor. Data analysis was carried out using Metamorph (Version 6. 1) and Excel] 2000. Conversion of pixels to gm based on a calibrated slide to represent the cell trajectories in the field.
(§2) The day before transfection cells were seeded at 50-60% density on sterile coverslips in a 6 well plate in culture medium without antibiotic. Transfection of 100 nM of double stranded siRNA Cy3 labeled per well (Ambion #731 1 and negative control, Ambion, Austin, TX was carried using Lipofectamine 2000 (Invitrogen, Carlsbad, CA) according to the manufacturer's instructions for siRNA transfections. Cells were stored in the incubator after the addition of the complexes and 7% FCS medium without antibiotic was added after the first 6 hours of transfection. The next day the supernatant was removed and normal culture medium replaced. Cells were tested by patch clamp and videomicroscopy during the next 48-72 hours, using the patch clamp and videomicroscopy methods described above in examples 4 and 5. […] The foregoing detailed description and examples have been given for clarity of understanding only. No unnecessary limitations are to be understood therefrom. The invention is not limited to the exact details shown and described, for variations obvious to one skilled in the art will be included within the invention defined by the claims.

PC3 cells = assay: PC3 cell migration by time-lapse videomicroscopy; assay type: cell-based, human; details: for PC3 cell migration: one hour intervals before, during and after exposure; for reversibility of migration block with washout: up to 1 hour
Protocol: The effect of the three anti-MscCa agents on PC3 cell migration was tested using time-lapse videomicroscopy to record the trajectory of the migrating prostate tumor cells. Selected video frames were prepared at 15 minute intervals, showing a cluster of 7 PC3 cells as they migrate out from the cluster. […] All three agents blocked cell migration.
as §1, §2

prostate tumor cell = details: medium containing serum; Cancer Letters 145 (1999); cited from earlier work
MscCa in PC3 cells = target: T1, MscCa in PC3 cells (Homo sapiens, UniProt P48995); assay: Cell-attached patch-clamp recording of MscCa activity in PC3 cells; assay type: cell-based
T1 construct: host or cells: PC3 human prostate tumor cells
Protocol: PC3 cell lines were grown in RPM1 1640 medium with 25 mM Hepes and glutamine, supplemented with 7% fetal calf serum, I mM sodium pyruvate, 4.5 g/L glucose, penicillin G (10,000 U/ml) and streptomycin sulfate (10,000 tg/ml) at 37° C. in a humidified 95% 02-5% C02 atmosphere. For patch-lamp studies, cells were seeded at low density on sterile coverslips placed in 33 mm culture dishes and tested during the next 2 - 5 days. Patch clamp recording was conducted as follows. Standard cell-attached patch-clamp recording was used to record single channel currents. The pipettes were made from thin-walled borosilicate glass (World Precision Instruments, Stevenage, UK) with an outside tip diameter of -2 Wm. Immediately prior to patch clamping, a cover slip was removed from the culture dish, glued with dots of silcone to a 35 mm culture, and placed in a microscope stage holder. Cells were visualized with an IM35 Zeiss microscope with fluorescence and Normaski optics. A pressure-clamp (McBride, D.W., Jr. & Hamill, O. P., PflLigers Archiv. 421, 606-612 (1992)) was used to apply pressure and suction protocols to achieve the initial tight seal and stimulate MS channels. […] This voltage-dependent gating of the open channel is also a characteristic of the prototypical MscCa, native to the frog oocyte (Taglietti et al., J. Physiol., 407, 311 (1988)), identified as being formed by the transient receptor channel protein I (TRPCI). The current-voltage relationship of the prostate MscCa measured with a 100 mM K+, zero Ca^2+in the pipette solution indicates an inwardly rectifying single channel conductance (-70 pS chord conductance at -100 mV and 20 pS at 50 mV) (Fig. • SB) that is essentially identical to that of the oocyte MscCa indicating a common pore structure. […] In the “sustained mode” (SM), the channels remained open for the duration of stimulation (Fig. SC), while in the “transient mode” (TM) the channels closed rapidly (cO.5 s) (FIG. 5C). […]

[2] = system: fish epithelial keratocyte; details: Lee et al., Nature 400 (1999), cited from earlier work
MscCa = assay: Pressure-clamp cell-attached patch recording of MscCa currents in Xenopus oocytes; assay type: cell-based; details: oocyte cell-attached patches; EGTA left out of pipette solution
prostate tumor cells = details: cited from earlier work
[3] = system: Ca^2+-activated K+channel; assay: Delayed outward channel currents after MscCa activation, PC3 cell-attached patch; assay type: cell-based, human; details: 50 nM charybdotoxin in the pipette solution; 1 mM external Ca^2+
Protocol: PC3 cell lines were grown in RPM1 1640 medium with 25 mM Hepes and glutamine, supplemented with 7% fetal calf serum, I mM sodium pyruvate, 4.5 g/L glucose, penicillin G (10,000 U/ml) and streptomycin sulfate (10,000 tg/ml) at 37° C. in a humidified 95% 02-5% C02 atmosphere. For patch-lamp studies, cells were seeded at low density on sterile coverslips placed in 33 mm culture dishes and tested during the next 2 - 5 days. Patch clamp recording was conducted as follows. Standard cell-attached patch-clamp recording was used to record single channel currents. The pipettes were made from thin-walled borosilicate glass (World Precision Instruments, Stevenage, UK) with an outside tip diameter of -2 Wm. Immediately prior to patch clamping, a cover slip was removed from the culture dish, glued with dots of silcone to a 35 mm culture, and placed in a microscope stage holder. Cells were visualized with an IM35 Zeiss microscope with fluorescence and Normaski optics. […] The current-voltage relationship of the prostate MscCa measured with a 100 mM K+, zero Ca^2+in the pipette solution indicates an inwardly rectifying single channel conductance (-70 pS chord conductance at -100 mV and 20 pS at 50 mV) (Fig. • SB) that is essentially identical to that of the oocyte MscCa indicating a common pore structure. […]

T1 sequence (P48995 whole entry): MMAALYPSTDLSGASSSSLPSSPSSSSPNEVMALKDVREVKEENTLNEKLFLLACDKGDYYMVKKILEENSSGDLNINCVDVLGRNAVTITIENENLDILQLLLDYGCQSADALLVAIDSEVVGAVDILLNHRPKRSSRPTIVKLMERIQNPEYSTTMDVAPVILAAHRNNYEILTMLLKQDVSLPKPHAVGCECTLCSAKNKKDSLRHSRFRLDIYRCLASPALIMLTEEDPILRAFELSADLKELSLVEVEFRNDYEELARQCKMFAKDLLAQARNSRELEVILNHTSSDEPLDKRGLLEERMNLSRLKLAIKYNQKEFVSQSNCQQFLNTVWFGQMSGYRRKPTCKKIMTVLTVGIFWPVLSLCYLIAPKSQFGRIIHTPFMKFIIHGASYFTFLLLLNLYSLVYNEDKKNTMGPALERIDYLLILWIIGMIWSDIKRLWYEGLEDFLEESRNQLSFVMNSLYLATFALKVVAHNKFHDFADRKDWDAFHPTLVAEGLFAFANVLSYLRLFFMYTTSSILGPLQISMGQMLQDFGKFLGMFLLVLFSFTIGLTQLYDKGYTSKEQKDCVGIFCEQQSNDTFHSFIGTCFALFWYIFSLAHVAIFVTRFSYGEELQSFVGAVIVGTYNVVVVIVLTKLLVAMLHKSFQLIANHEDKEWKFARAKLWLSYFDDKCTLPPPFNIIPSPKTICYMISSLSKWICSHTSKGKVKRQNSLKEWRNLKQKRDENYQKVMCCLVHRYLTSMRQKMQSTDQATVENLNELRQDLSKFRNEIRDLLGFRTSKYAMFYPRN

[Gd+3] [Gd^3+, gadolinium ion]
sustained and transient [Ca^2+]i oscillations [1]: abolished | reversibility of block of [Ca^2+]i oscillations after washout [1]: reversible | PC3 cell migration (PC3 cells; Gd^3+): blocked | reversibility of migration block with washout (PC3 cells): reversible | prostate tumor cell motility (prostate tumor cell): enhanced rather than inhibited | MscCa activity (MscCa in PC3 cells; Gd^3+ also included in the pipette-tip solution, 20 out of 20 patches): abolished | MscCa patch current (channel block) (MscCa in PC3 cells; Gd^3+ in back solution at 5 µM, -3 minutes after tight seal, pressure steps): block the channel | Ca^2+ transients [2]: abolishes | cell migration ([2]; prevents rear detachment): inhibiting | block of native and TRPC1-expressed MscCa (MscCa): equally effective in blocking

NC1=N[C@H](O)[C@H]2[C@H]3O[C@]4(O)O[C@@H]([C@@H](O)[C@@]2(N1)[C@@H]4O)[C@]3(O)CO [tetrodotoxin]
invasiveness (prostate tumor cells): reduce invasiveness

GCLEFWWKCNPNDDKCCRPKLKCSKLFKLCNFSSG [GsmTx-4]
sustained and transient [Ca^2+]i oscillations [1]: abolished | reversibility of block of [Ca^2+]i oscillations after washout [1]: reversible | PC3 cell migration (PC3 cells; GsMTx-4 3 μM): blocked | reversibility of migration block with washout (PC3 cells): reversible | MscCa activity (MscCa in PC3 cells; 3 μM GsmTx-4 in pipette, SM or TM gating mode): blocked; also recorded: effective in blocking

charybdotoxin (QFTNVSCTTSKECWSVCQRLHNTSRGKCMNKKCRCYS)
delayed activation of outward channel currents after MscCa inward currents [3]: absent
